Measured values taken from patent publication US7081353B2, “Drug susceptibility measurement method and apparatus thereof” (Jikei University School of Medicine, priority 2000, dated 2006).

The molecules below were run on S. epidermidis (Staphilococcus epidermidis) (assay: MIC by conventional measurement method, S. epidermidis). Settings: 106 cfu/ml, necessary time 18 hours.
Assay type: cell-based
Description: The drug susceptibility measurement results are obtained by employing S. epidermidis (Staphilococcus epidermidis), […] (Genus Enterococcus) as bacteria, and by determining an amount of bacteria to be 10^6 cfu/ml. And, PCG (Penicillin G), IPM (Imipenem), MINO (Minocycline), EM (Erythromycin), OFLX (Ofloxacin), ST (Sulfamethoxazole Trimethoprim), […]) are employed as drug.
In the case of `CC[C@H]1OC(=O)[C@H](C)[C@@H](O[C@H]2C[C@@](C)(OC)[C@@H](O)[C@H](C)O2)[C@H](C)[C@@H](O[C@@H]2O[C@H](C)C[C@H](N(C)C)[C@H]2O)[C@](C)(O)C[C@@H](C)C(=O)[C@H](C)[C@@H](O)[C@]1(C)O` [EM, Erythromycin], the “(a) MIC values (minimum inhibitory interfering concentration) obtained by a conventional measurement method” value is reported as “≦0.12 g g/ml”.
With `C[C@@H](O)[C@H]1C(=O)N2C(C(=O)O)=C(SCCN=CN)C[C@H]12` [IPM, Imipenem] the “(a) MIC values (minimum inhibitory interfering concentration) obtained by a conventional measurement method” value was “≦1 g g/ml”.
In the case of `CN(C)c1ccc(O)c2c1C[C@H]1C[C@H]3[C@H](N(C)C)C(O)=C(C(N)=O)C(=O)[C@@]3(O)C(O)=C1C2=O` [MINO, Minocycline], the “(a) MIC values (minimum inhibitory interfering concentration) obtained by a conventional measurement method” value is reported as “≦0.12 g g/ml”.
For `CC1COc2c(N3CCN(C)CC3)c(F)cc3c(=O)c(C(=O)O)cn1c23` (centres unmarked) [OFLX, Ofloxacin], the “(a) MIC values (minimum inhibitory interfering concentration) obtained by a conventional measurement method” value was “≦1 g g/ml”.
In the case of `CN[C@H](CC(C)C)C(=O)N[C@H]1C(=O)N[C@@H](CC(N)=O)C(=O)N[C@H]2C(=O)N[C@H]3C(=O)N[C@H](C(=O)N[C@H](C(=O)O)c4cc(O)cc(O)c4-c4cc3ccc4O)[C@H](O)c3ccc(c(Cl)c3)Oc3cc2cc(c3O[C@@H]2O[C@H](CO)[C@@H](O)[C@H](O)[C@H]2O[C@H]2C[C@](C)(N)[C@H](O)[C@H](C)O2)Oc2ccc(cc2Cl)[C@H]1O` [VCM, Vancomycin], the “(a) MIC values (minimum inhibitory interfering concentration) obtained by a conventional measurement method” value is reported as “≦1 g g/ml”.
